In patent US7425556B2 (priority 2005, dated 2008):

Columns and labels:
[1] = molecular target: T1, GABAA2 receptors (α2, β3, γ2 receptor subunits) (Homo sapiens, UniProt P18507+P47869); experiment: biochemical; conditions: [3H]-Flunitrazepam ~2 nM, α2β3γ2 Sf9 membranes, 1 hr at 4° C.; read-out: GABAA2 Binding Ki
T1 construct: host or cells: Sf9 cells (membranes)
Description: In some embodiments, the binding test was directed to a subtype of GABAA receptors, such as GABAA1 receptors (i.e., those containing the α1 subunit), GABAA2 receptors (i.e., those containing the α2 subunit), GABAA3 receptors (i.e., those containing the α3 subunit) and GABAA5 receptors (i.e., those containing the α5 subunit).
[formula] Method FF GABAA2 Binding Method Reagents
Assay and Wash Buffer: 50 mM Tris-Citrate, 200 mM NaCl, pH 7.8
Compounds at 10 mM in DMSO: Put 75 μl in column 1 of compound plate.
Flumazenil, 10 mM (for NSB)
[^3H]-Flunitrazepam (Cat #NET567): Prepare 10× stock=20 nM, [F} in assay=˜2 nM
1. […] Add 5 ul of 30 uM flumazenil to wells 12 D-E for 50% control wells.
2. Spot 2 μl of compound dilutions into dry plate (Automation Program 3). Manually spot 2 μl 10 mM flumazenil into wells 12 F-H for nonspecific control.
3. Make 1:100 dilution in assay buffer (2 μl into 200 μl) and dispense 25 μl compound into assay plates (Automation Program 4).
4. Dispense 200 μl membranes into assay plate (Automation Program 5).
5. Add 25 μl [^3H]-Flunitrazepam (Automation Program 6). Incubate for 1 hr at 4° C.
6. Collect membranes on a cell harvester onto GF/B filter plates (pre-wet with dH2O and wash 5×400 μl/well, with cold assay buffer. (First 3 washes are considered hot; last two are cold.)
7. Dry plates for 2-3 hours at RT.
8. Add 40 μl Microsecond 40/well (Automation Program 7); seal plates. Count on a Top Count.
Data is analyzed by calculating percent of control, IC50, and Kid in an Lift template. The following formula is used in the templates: […]

[2] = molecular target: T2, GABAA1 (human α1β2γ2 GABAA receptor) (Homo sapiens, UniProt P14867+P18507); experiment: Two-electrode voltage-clamp in Xenopus oocytes, potentiation of GABA EC10 current, GABAA1; format: cell-based; conditions: percentage potentiation of GABA EC10 current divided by that of diazepam
T2 construct: expressed in transfected cells; host or cells: Xenopus laevis oocytes injected with capped cRNA
T2 sequence (P14867 28-456): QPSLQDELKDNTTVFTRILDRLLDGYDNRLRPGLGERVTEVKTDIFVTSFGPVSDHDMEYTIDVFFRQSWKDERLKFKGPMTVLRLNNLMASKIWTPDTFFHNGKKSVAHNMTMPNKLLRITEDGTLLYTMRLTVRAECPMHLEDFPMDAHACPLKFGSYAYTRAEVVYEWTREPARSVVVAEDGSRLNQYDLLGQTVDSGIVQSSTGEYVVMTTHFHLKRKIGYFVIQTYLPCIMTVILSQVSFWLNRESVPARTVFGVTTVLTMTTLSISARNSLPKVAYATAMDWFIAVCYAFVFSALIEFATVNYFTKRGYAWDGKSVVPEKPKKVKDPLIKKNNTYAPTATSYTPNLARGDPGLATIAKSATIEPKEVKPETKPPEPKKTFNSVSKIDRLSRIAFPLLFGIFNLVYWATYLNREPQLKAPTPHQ
T2 sequence (P47870 25-512 partner limits assumed): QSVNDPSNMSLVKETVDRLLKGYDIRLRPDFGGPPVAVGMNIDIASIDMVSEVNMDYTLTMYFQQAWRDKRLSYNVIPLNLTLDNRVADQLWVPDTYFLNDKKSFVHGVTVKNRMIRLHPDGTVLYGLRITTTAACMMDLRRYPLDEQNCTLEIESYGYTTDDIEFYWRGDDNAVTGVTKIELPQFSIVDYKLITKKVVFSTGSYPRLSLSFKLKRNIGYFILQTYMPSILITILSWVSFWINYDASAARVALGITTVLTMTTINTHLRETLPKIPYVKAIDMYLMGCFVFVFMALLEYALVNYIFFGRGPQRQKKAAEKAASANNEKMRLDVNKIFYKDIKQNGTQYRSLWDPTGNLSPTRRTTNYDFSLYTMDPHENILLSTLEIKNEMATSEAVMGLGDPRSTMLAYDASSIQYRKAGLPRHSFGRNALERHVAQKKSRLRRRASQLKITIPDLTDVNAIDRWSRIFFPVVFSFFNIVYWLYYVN
T2 sequence (P18507 40-475): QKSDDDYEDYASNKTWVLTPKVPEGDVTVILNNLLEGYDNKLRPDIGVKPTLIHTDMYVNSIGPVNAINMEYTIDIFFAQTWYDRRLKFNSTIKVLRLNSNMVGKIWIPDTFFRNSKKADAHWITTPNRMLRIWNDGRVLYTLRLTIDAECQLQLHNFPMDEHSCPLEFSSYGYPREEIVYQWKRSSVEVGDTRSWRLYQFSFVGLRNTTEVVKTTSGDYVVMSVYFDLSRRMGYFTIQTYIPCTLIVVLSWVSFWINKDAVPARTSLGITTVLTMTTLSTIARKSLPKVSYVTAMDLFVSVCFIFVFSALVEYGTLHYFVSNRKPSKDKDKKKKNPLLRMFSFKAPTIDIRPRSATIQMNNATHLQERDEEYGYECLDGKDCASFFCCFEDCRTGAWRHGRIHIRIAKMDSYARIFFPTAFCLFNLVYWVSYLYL
From the text: (§1) Presently available GABAA modulator anxiolytics work via interactions at the classical benzodiazepine binding site. To a large degree these anxiolytics lack GABAA receptor subtype-selectivity. The subtype-selective GABAA receptor modulators may offer more advantages. […] Sedation, a side-effect common to all marketed benzodiazepines, is believed to be mediated by interactions at GABAARs containing the α1 subunit. To develop anxiolytics with minimal liabilities due to interactions with other subunits, an electrophysiological assay was developed to screen modulatory effects of various compounds on different GABA subunit combinations heterologously expressed in Xenopus oocytes.
(§2) GABAA receptors were heterologously expressed in Xenopus oocytes by injecting cRNA corresponding to human α1, α2, α3, α5, β2, β3 and γ2 subunits of the GABAA receptor genes. The specific subunit combinations (subtypes) were as follows: α1β2γ2, α2β3γ2, α3β3γ2, and α5β3γ2. The EC10 of GABA was approximated for each cell. Stability of GABA-mediated (EC10) current was established. Modulatory effect of test compound was determined and compared across subtypes. […] Thus, the assay can characterize modulatory effects and determine subtype selectivity of test compounds on major subtypes of GABAA receptors.
(§3) Xenopus laevis frogs (Xenopus I, Kalamazoo, MI) were anesthetized using 0. […] Surgically removed ovarian lobes were teased out in OR2 solution (82 NaCl, 2.5 KCl, 5 HEPES, 1.5 NaH2PO4, 1 MgCl2, 0.1 EDTA, in mM, pH 7.4). The acolytes were deflocculated by incubation in 25 mL OR2 containing 0.2% collagens 1A (SIGMA) two times for about 60 minutes on a platform shaker and stored in Leibovitz's L-15 medium. Acolytes were injected the following day in 0.5× Leibovitz's L-15 medium containing […] gentamycin, 10 units/ml penicillin, and […] streptomycin.
(§4) Capped cRNAs from the linear zed vectors containing human α1, β2 and γ2 subunits of the GABAA receptor genes were mixed in ratio of […]. Acolytes were injected with 25-50 nL of mixed RNA with an appx molar ratio for α1, β2 and γ2 as 1:1:10. Acolyte recordings were done 2-10 days after injection. The same methods apply to subtypes derived from α2β3γ2, α3β3γ2, and α5β3γ2, except for 1:1:1 ratio was used for α, β, and γ subunits.
(§5) All measurements were done in a medium containing ND-96 (96 NaCl, 2 KCl, 1.8 CaCl2.2H2O, 1 MgCl2.6H2O, 5 HEPES, in mM, pH 7.5). Two-electrode voltage-clamp recording was carried out using Opus press amplifier (Axon Instruments, Foster City, Calif.), which allows simultaneous recording from 8 acolytes. Acolytes were impaled with two electrodes of 1-2 MΩ tip resistance when filled with 3M KCl. Recordings were begun when membrane potential became stable at potentials negative to −50-−60 mV. Membrane potential was held at −60 mV. […] The concentration of GABA corresponded to the EC10 value calculated for each acolyte. The modulator pulses started 30 s before the GABA pulse so as to allow preoccupation with the modulator. A set of 3 pulses with just GABA without modulator was given prior to the modulator-containing pulses to define the baseline GABA response. Two acolytes per each experiment were dedicated to observe the effect of diazepam on GABA response to ensure the presence of γ subunit in the GABAA pantomimic complex, which imparts diazepam sensitivity to the complex.
(§6) Current amplitude (i) was measured from baseline to peak using Clamp fit (Axon Inst., Foster City, Calif.). Potentiating was calculated as percent change from the baseline GABA current flux 100×(imod/icontrol)−1) where imod=current mediated by modulator+GABA and icontrol=current mediated by GABA alone. […] Similarly, a value of −50% potentiating means the presence of modulator caused a 50% decrease in the control current.

[3] = molecular target: T3, GABAA2 (human α2β3γ2 GABAA receptor) (Homo sapiens, UniProt P18507+P47869); experiment: Two-electrode voltage-clamp in Xenopus oocytes, potentiation of GABA EC10 current, GABAA2; format: cell-based; conditions: percentage potentiation of GABA EC10 current divided by that of diazepam
T3 construct: expressed in transfected cells; host or cells: Xenopus laevis oocytes injected with capped cRNA
T3 sequence (P47869 29-451): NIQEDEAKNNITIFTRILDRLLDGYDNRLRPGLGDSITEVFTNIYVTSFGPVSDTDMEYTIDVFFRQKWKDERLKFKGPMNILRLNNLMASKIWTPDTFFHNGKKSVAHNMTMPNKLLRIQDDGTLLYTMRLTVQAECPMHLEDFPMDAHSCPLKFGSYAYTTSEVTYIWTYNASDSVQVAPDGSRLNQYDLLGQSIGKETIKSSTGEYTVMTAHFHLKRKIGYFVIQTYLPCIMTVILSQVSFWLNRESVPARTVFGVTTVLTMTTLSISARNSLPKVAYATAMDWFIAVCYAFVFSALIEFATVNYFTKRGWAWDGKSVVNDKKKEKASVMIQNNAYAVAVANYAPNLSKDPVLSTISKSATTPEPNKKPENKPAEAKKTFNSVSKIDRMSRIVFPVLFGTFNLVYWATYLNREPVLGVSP
T3 sequence (P28472 26-473 partner): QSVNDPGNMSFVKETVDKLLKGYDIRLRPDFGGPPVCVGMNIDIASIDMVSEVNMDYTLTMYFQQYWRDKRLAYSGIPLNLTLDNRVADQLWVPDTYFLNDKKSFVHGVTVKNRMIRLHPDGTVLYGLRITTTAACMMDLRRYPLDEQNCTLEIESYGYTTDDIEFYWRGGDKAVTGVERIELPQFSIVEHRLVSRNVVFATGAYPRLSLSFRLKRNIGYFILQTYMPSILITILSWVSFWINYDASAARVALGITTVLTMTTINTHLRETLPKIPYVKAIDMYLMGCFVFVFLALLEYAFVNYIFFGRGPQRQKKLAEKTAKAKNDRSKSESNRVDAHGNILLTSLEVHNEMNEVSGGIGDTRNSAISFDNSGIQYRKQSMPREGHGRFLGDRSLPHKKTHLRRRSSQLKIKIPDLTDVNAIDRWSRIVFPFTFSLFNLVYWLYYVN
T3 sequence (P18507 40-475): as the sequence (P18507 40-475) above
From the text: as §1, §2, §3, §4, §5, §6

T1 sequence (P47869 29-451): as the sequence (P47869 29-451) above
T1 sequence (P28472 26-473 partner): as the sequence (P28472 26-473 partner) above
T1 sequence (P18507 40-475): as the sequence (P18507 40-475) above

Row | Compound | Ki [1] [nM] | Relative Potentiation for GABAA1 [2] | Relative Potentiation for GABAA2 [3]
1 | CCCNC(=O)c1nnc2c(-c3ccc(OC)c(OC)c3OC)cccc2c1N | 6.75 | 0.47 | 0.33
2 | CCCNC(=O)c1nnc2c(-c3cc(F)ccc3C)c(F)ccc2c1N | 0.735 | 0.032 | 0.12
3 | CCCNC(=O)c1nnc2c(-c3cc(Cl)cc(Cl)c3)cccc2c1N | 22 | 0.28 | 0.48
4 | CCCNC(=O)c1nnc2c(-c3cncc(C(=O)N4CCC4)c3)cccc2c1N | 2.34 | −0.11 | −0.033
5 | CCCNC(=O)c1nnc2c(-c3cccc(OC)c3F)c(F)ccc2c1N | 0.941 | 0.05 | 0.23
6 | CCCNC(=O)c1nnc2c(-c3ccc(OC)cc3OC)cccc2c1N | 2.5 | 0.18 | 0.15
7 | CCCNC(=O)c1nnc2c(-c3ccc(C)nc3F)cccc2c1N | 1.67 | 0.053 | 0.27
8 | CCCNC(=O)c1nnc2c(-c3cccc(C#N)c3)cccc2c1N | 1.18 | 0.088 | 0.31
9 | CCCNC(=O)c1nnc2c(-c3cc(F)cc(F)c3OC)c(F)ccc2c1N | 5.78 | 0.1 | 0.14
10 | CCCNC(=O)c1nnc2c(-c3cccc(Cl)c3Cl)cccc2c1N | 1.82 | 0.067 | 0.053
11 | CCCNC(=O)c1nnc2c(-c3cccc(F)c3F)cccc2c1N | 0.558 | −0.11 | 0.17
12 | CCNC(=O)c1nnc2c(-c3cnccc3OC)cccc2c1N | 4.36 | −0.02 | 0.28
13 | CCCNC(=O)c1nnc2c(-c3cccc(OC)c3)cccc2c1N | 4.34 | 0.13 | 0.22
14 | CCCNC(=O)c1nnc2c(-c3ccccc3)c(Cl)ccc2c1N | 5.82 | 0.25 | 0.16
15 | CCCNC(=O)c1nnc2c(-c3cc(C)ccc3C)c(F)ccc2c1N | 1.31 | 0.21 | 0.28
16 | CCCNC(=O)c1nnc2c(-c3cc(F)ccc3OC)cccc2c1N | 10.5 | 0.026 | 0.4
17 | CCCNC(=O)c1nnc2c(-c3cc(Cl)ccc3OC)cccc2c1N | 1.11 | 0.38 | 0.4
18 | CCCNC(=O)c1nnc2c(-c3ccccn3)cccc2c1N | 19.4 | 0.027 | −0.032

Row | Compound | Ki [1] [nM] | Relative Potentiation for GABAA1 [2] | Relative Potentiation for GABAA2 [3]
19 | CCCNC(=O)c1nnc2c(-c3cccc(OC)c3F)cccc2c1N | 3.41 | 0.045 | 0.26
20 | CCCNC(=O)c1nnc2c(-c3cc(F)ccc3OC)c(F)ccc2c1N | 0.98 | 0.085 | 0.22
21 | CCCCNC(=O)c1nnc2c(-c3cnccc3OC)cccc2c1N | 1.84 | 0.2 | 0.52
22 | CCCNC(=O)c1nnc2c(-c3cc(C)ccc3OC)c(F)ccc2c1N | 0.937 | 0.23 | 0.37
23 | CCCNC(=O)c1nnc2c(-c3cncc(OC)c3)cccc2c1N | 4.21 | 0.07 | 0.34
24 | CCCNC(=O)c1nnc2c(-c3ccncc3)cccc2c1N | 1.67 | −0.038 | 0.1
25 | CCCNC(=O)c1nnc2c(-c3ccc(OC)c(C)c3)cccc2c1N | 17.6 | 0.21 | 0.27
26 | CCCNC(=O)c1nnc2c(-c3cc(C)ccc3F)cccc2c1N | 0.852 | 0.095 | 0.37
27 | CCCNC(=O)c1nnc2c(-c3cnccn3)cccc2c1N | 20.4 | −0.067 | −0.01
28 | CNC(=O)c1nnc2c(-c3cc(C)ccc3OC)cccc2c1N | 35.8 | 0.19 | 0.43
29 | CCCNC(=O)c1nnc2c(-c3ccc(OC)c(F)c3)c(F)ccc2c1N | 2.88 | 0.1 | 0.16
30 | CCCNC(=O)c1nnc2c(-c3cnc(OC)nc3OC)c(F)ccc2c1N | 0.918 | 0.12 | 0.39
31 | CCCNC(=O)c1nnc2c(-c3ccc4ccccc4c3)cccc2c1N | 43.3 | 0.22 | 0.09
32 | CCCNC(=O)c1nnc2c(-c3cnccc3C)cccc2c1N | 1.68 | 0.083 | 0.11
33 | CCCNC(=O)c1nnc2c(-c3cc(OC)c(OC)c(OC)c3)cccc2c1N | 56.5 | 0.4 | 0.67
34 | CCCNC(=O)c1nnc2c(-c3cc(F)ccc3F)c(F)ccc2c1N | 45.8 | 0.013 | 0.098
35 | CCCNC(=O)c1nnc2c(-c3ccc(F)cc3OC)cccc2c1N | 4.34 | 0.12 | 0.38
36 | CCCNC(=O)c1nnc2c(-c3ccc(OC)c(OC)c3)cccc2c1N | 3.88 | 0.33 | 0.28
